In patent US11246929B2, “Combination of a protein kinase inhibitor and an additional chemotherapeutic agent” (Merck Patent GmbH, priority 2016, dated 2022):

Tested on: MO59K (DNA-PK wild type)
Assay: AlamarBlue viability assay
Format: cell-based, human
Conditions: compound incubation for 72 h
Procedure: Details of the assay protocol and material utilized are set forth below.
After 24 h incubation at 37° C.
At the end of the compound incubation period 20 μl AlamarBlue reagent was added per well and the 96-well plates were incubated further up to seven hours. Absorption was determined at 540 nm by using Tecan Reader Connect and Magelan 7.
0% effect=cells treated with DMSO; −100% effect=no cells

[2H]c1nc(C)nc([2H])c1-c1cc(NC[C@@H](C)c2cccc3c(C(N)=O)ccnc23)ncn1 [VX984, 8-[(1S)-2-[[6-(4,6-dideuterio-2-methylpyrimidin-5-yl)pyrimidin-4-yl]amino]-1-methylethyl]quinoline-4-carboxamide]
potentiation of etoposide, Compound 1 in comparison to VX-984: requires higher concentrations of etoposide to arrive at the same % effect
